According to paper PMC3307806 (Molecular Pharmaceutics, 2012):
“Also recorded” adds a separate entry of the source.

Key:
[1] = Pseudo-steady-state blood CsA and plasma Lop/dLop concentrations in rats; settings: 60 min; Student's t-test
P-gp (mdr1a/b) = settings: 7; cited from earlier work
P-gp = settings: verapamil-bodipy or prazosin-bodipy as probe substrate; cited from earlier work
P-gp at the human BBB = settings: human PET study; cited from earlier work
P-gp at the rat BBB = P-gp at the rat BBB (Rattus norvegicus, UniProt Q6PSM0); settings: absence of CsA, 60 min, n=5
P-gp at the rat BBB, sequence (Q6PSM0 1-1272): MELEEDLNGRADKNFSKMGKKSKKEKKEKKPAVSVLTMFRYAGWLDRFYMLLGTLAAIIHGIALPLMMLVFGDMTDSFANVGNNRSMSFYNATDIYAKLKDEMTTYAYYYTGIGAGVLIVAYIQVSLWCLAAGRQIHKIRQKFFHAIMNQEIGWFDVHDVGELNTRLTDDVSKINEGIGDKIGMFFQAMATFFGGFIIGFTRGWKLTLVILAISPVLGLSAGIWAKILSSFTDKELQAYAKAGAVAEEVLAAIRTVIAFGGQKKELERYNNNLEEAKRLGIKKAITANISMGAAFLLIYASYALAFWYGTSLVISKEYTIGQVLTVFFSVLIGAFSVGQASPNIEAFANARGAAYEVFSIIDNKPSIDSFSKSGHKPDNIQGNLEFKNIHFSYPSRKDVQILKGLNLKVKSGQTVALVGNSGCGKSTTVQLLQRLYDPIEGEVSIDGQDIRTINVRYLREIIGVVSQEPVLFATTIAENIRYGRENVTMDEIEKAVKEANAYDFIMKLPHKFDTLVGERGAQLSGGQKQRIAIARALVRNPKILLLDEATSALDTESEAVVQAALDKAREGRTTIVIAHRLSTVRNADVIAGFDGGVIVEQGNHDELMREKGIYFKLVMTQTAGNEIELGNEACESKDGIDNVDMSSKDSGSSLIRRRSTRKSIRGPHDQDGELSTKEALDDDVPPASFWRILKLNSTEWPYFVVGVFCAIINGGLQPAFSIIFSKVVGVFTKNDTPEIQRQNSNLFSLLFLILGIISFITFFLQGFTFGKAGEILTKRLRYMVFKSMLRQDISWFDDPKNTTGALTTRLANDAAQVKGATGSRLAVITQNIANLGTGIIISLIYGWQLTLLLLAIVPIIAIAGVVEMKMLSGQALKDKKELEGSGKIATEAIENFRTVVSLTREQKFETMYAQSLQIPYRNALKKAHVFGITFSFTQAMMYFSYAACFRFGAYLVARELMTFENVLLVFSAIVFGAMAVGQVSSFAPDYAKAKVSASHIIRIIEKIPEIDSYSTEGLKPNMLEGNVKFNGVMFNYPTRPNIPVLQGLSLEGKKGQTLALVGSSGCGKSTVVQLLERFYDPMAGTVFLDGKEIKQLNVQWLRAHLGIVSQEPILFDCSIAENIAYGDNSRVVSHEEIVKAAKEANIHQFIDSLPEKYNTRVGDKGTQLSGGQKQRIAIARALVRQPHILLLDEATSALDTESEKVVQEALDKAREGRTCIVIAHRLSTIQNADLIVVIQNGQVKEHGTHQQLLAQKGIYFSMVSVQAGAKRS

Row | Compound | effect of the presence of CsA on pseudo-steady-state plasma concentration [1] | difference in potency (EC50) to inhibit P-gp depending on the probe substrate (P-gp) [fold] | further results
1 | CN(C)C(=O)C(CCN1CCC(O)(c2ccc(Cl)cc2)CC1)(c1ccccc1)c1ccccc1 [Lop, Loperamide] | did not significantly affect; also recorded: not significantly affected | – | –
2 | Cc1c(O)cccc1C(=O)N[C@@H](CSc1ccccc1)[C@H](O)CN1C[C@H]2CCCC[C@H]2C[C@H]1C(=O)NC(C)(C)C [Nelfinavir] | – | – | increase in brain:blood concentration ratio in mdr1a/b(-/-) vs. wild-type mice (P-gp (mdr1a/b)): 3400%
3 | CCC(C)n1ncn(-c2ccc(N3CCN(c4ccc(OCC5COC(Cn6cncn6)(c6ccc(Cl)cc6Cl)O5)cc4)CC3)cc2)c1=O (centres unmarked) [itraconazole] | – | 10 | –
4 | CN([11CH3])C(=O)C(CCN1CCC(O)(c2ccc(Cl)cc2)CC1)(c1ccccc1)c1ccccc1 [11C-Lop] | – | – | share of radioactivity in the plasma (P-gp at the human BBB): 76%
5 | C=C[C@H]1C[N@@]2CC[C@H]1C[C@@H]2[C@@H](O)c1ccnc2ccc(OC)cc12 [quindine] | – | 20 | –
6 | CNC(=O)C(CCN1CCC(O)(c2ccc(Cl)cc2)CC1)(c1ccccc1)c1ccccc1 [dLop, N-desmethyl Loperamide] | did not significantly affect; also recorded: not significantly affected | – | brain:plasma concentrations (ratio) corrected for vascular content (P-gp at the rat BBB): 0.11 ± 0.04; brain:plasma concentrations (ratio) (P-gp at the rat BBB; not corrected for vascular content): 0.14 ± 0.04
